From ChEMBL document CHEMBL1152723, “Remarkable enhancement in the DNA-binding ability of C2-fluoro substituted pyrrolo[2,1-c][1,4]benzodiazepines and their anticancer potential” (2009)

Experiments:
Assay type in all cases: functional
UACC-62 = experiment: Growth inhibition of human UACC62 cells after 48 hrs by sulforhodamine B protein assay; conditions: UACC-62, 48 h
IGROV-1 = experiment: Growth inhibition of human IGROV1 cells after 48 hrs by sulforhodamine B protein assay; conditions: IGROV-1, 48 h
OVCAR-3 = experiment: Growth inhibition of human OVCAR-3 cells after 48 hrs by sulforhodamine B protein assay; conditions: OVCAR-3, 48 h
OVCAR-4 = experiment: Growth inhibition of human OVCAR4 cells after 48 hrs by sulforhodamine B protein assay; conditions: OVCAR-4, 48 h
OVCAR-5 = experiment: Growth inhibition of human OVCAR5 cells after 48 hrs by sulforhodamine B protein assay; conditions: OVCAR-5, 48 h
OVCAR-8 = experiment: Growth inhibition of human OVCAR8 cells after 48 hrs by sulforhodamine B protein assay; conditions: OVCAR-8, 48 h
SK-OV-3 = experiment: Growth inhibition of human SKOV3 cells after 48 hrs by sulforhodamine B protein assay; conditions: SK-OV-3, 48 h
ACHN = experiment: Growth inhibition of human ACHN cells after 48 hrs by sulforhodamine B protein assay
CAKI-1 = experiment: Growth inhibition of human Caki1 cells after 48 hrs by sulforhodamine B protein assay; conditions: CAKI-1, 48 h
SN12C = experiment: Growth inhibition of human SN12C cells after 48 hrs by sulforhodamine B protein assay
TK-10 = experiment: Growth inhibition of human TK10 cells after 48 hrs by sulforhodamine B protein assay; conditions: TK-10, 48 h
UO-31 = experiment: Growth inhibition of human UO31 cells after 48 hrs by sulforhodamine B protein assay; conditions: UO-31, 48 h
PC-3 = experiment: Growth inhibition of human PC3 cells after 48 hrs by sulforhodamine B protein assay; conditions: PC-3, 48 h
DU-145 = experiment: Growth inhibition of human DU145 cells after 48 hrs by sulforhodamine B protein assay; conditions: DU-145, 48 h
MCF7 = experiment: Growth inhibition of human MCF7 cells after 48 hrs by sulforhodamine B protein assay; conditions: MCF7, 48 h
NCI/ADR-RES = experiment: Growth inhibition of human NCI/ADR-RES cells after 48 hrs by sulforhodamine B protein assay
T47D = experiment: Growth inhibition of human T47D cells after 48 hrs by sulforhodamine B protein assay
MDA-MB-468 = experiment: Growth inhibition of human MDA-MB-468 cells after 48 hrs by sulforhodamine B protein assay; conditions: MDA-MB-468, 48 h
CCRF-CEM = experiment: Growth inhibition of human CCRF-CEM cells after 48 hrs by sulforhodamine B protein assay
HL-60(TB) = experiment: Growth inhibition of human HL-60(TB) cells after 48 hrs by sulforhodamine B protein assay; conditions: HL-60, 48 h
K562 = experiment: Growth inhibition of human K562 cells after 48 hrs by sulforhodamine B protein assay; conditions: K562, 48 h
MOLT-4 = experiment: Growth inhibition of human MOLT4 cells after 48 hrs by sulforhodamine B protein assay; conditions: MOLT-4, 48 h
[1] = Growth inhibition of human […] cells after 48 hrs by sulforhodamine B protein assay
SR = experiment: Growth inhibition of human SR cells after 48 hrs by sulforhodamine B protein assay
A549 = experiment: Growth inhibition of human A549 cells after 48 hrs by sulforhodamine B protein assay; conditions: A549, 48 h
EKVX = experiment: Growth inhibition of human EKVX cells after 48 hrs by sulforhodamine B protein assay
HOP-62 = experiment: Growth inhibition of human HOP62 cells after 48 hrs by sulforhodamine B protein assay; conditions: HOP-62, 48 h
HOP-92 = experiment: Growth inhibition of human HOP92 cells after 48 hrs by sulforhodamine B protein assay; conditions: HOP-92, 48 h
NCI-H226 = experiment: Growth inhibition of human NCI-H226 cells after 48 hrs by sulforhodamine B protein assay; conditions: NCI-H226, 48 h
NCI-H23 = experiment: Growth inhibition of human NCI-H23 cells after 48 hrs by sulforhodamine B protein assay; conditions: NCI-H23, 48 h
NCI-H322M = experiment: Growth inhibition of human NCI-H322M cells after 48 hrs by sulforhodamine B protein assay
NCI-H460 = experiment: Growth inhibition of human NCI-H460 cells after 48 hrs by sulforhodamine B protein assay; conditions: NCI-H460, 48 h
NCI-H522 = experiment: Growth inhibition of human NCI-H522 cells after 48 hrs by sulforhodamine B protein assay; conditions: NCI-H522, 48 h
COLO 205 = experiment: Growth inhibition of human COLO205 cells after 48 hrs by sulforhodamine B protein assay; conditions: COLO 205, 48 h
HCC 2998 = experiment: Growth inhibition of human HCC2998 cells after 48 hrs by sulforhodamine B protein assay; conditions: HCC 2998, 48 h
HCT-116 = experiment: Growth inhibition of human HCT116 cells after 48 hrs by sulforhodamine B protein assay; conditions: HCT-116, 48 h
HCT-15 = experiment: Growth inhibition of human HCT15 cells after 48 hrs by sulforhodamine B protein assay; conditions: HCT-15, 48 h
HT-29 = experiment: Growth inhibition of human HT-29 cells after 48 hrs by sulforhodamine B protein assay; conditions: HT-29, 48 h
SW-620 = experiment: Growth inhibition of human SW620 cells after 48 hrs by sulforhodamine B protein assay; conditions: SW-620, 48 h
SF-268 = experiment: Growth inhibition of human SF268 cells after 48 hrs by sulforhodamine B protein assay; conditions: SF-268, 48 h
SF-539 = experiment: Growth inhibition of human SF539 cells after 48 hrs by sulforhodamine B protein assay; conditions: SF-539, 48 h
SNB-19 = experiment: Growth inhibition of human SNB19 cells after 48 hrs by sulforhodamine B protein assay; conditions: SNB-19, 48 h
SNB-75 = experiment: Growth inhibition of human SNB75 cells after 48 hrs by sulforhodamine B protein assay; conditions: SNB-75, 48 h
U-251 = experiment: Growth inhibition of human U251 cells after 48 hrs by sulforhodamine B protein assay; conditions: U-251, 48 h
LOX IMVI = experiment: Growth inhibition of human LOXIMVI cells after 48 hrs by sulforhodamine B protein assay
Malme-3M = experiment: Growth inhibition of human MALME-3M cells after 48 hrs by sulforhodamine B protein assay
M14 = experiment: Growth inhibition of human M14 cells after 48 hrs by sulforhodamine B protein assay; conditions: M14, 48 h
SK-MEL-2 = experiment: Growth inhibition of human SK-MEL-2 cells after 48 hrs by sulforhodamine B protein assay; conditions: SK-MEL-2, 48 h
A498 = experiment: Growth inhibition of human A498 cells after 48 hrs by sulforhodamine B protein assay; conditions: A498, 48 h

Structure (SMILES): COc1cc2c(cc1OCCCN1CCN(CCCOc3cc4c(cc3OC)C(=O)N3CC(F)C[C@H]3C=N4)CC1)N=C[C@@H]1CC(F)CN1C2=O (some centres undefined)
- GI50 (UACC-62): < 80 nM
- GI50 (IGROV-1): < 50 nM
- GI50 (OVCAR-3): < 40 nM
- GI50 (OVCAR-4): 460 nM
- GI50 (OVCAR-5): 160 nM
- GI50 (OVCAR-8): 100 nM
- GI50 (SK-OV-3): < 70 nM
- GI50 (ACHN): 150 nM
- GI50 (CAKI-1): 20 nM
- GI50 (SN12C): < 10 nM
- GI50 (TK-10): 250 nM
- GI50 (UO-31): 1030 nM
- GI50 (PC-3): 10 nM
- GI50 (DU-145): 40 nM
- GI50 (MCF7): < 10 nM
- GI50 (NCI/ADR-RES): 5250 nM
- GI50 (T47D): < 10 nM
- GI50 (MDA-MB-468): < 10 nM
- GI50 (CCRF-CEM): < 10 nM
- GI50 (HL-60(TB)): < 10 nM
- GI50 (K562): < 10 nM
- GI50 (MOLT-4): < 10 nM
- GI50 [1]: < 20 nM
- GI50 (SR): < 10 nM
- GI50 (A549): 120 nM
- GI50 (EKVX): 170 nM
- GI50 (HOP-62): < 10 nM
- GI50 (HOP-92): < 90 nM
- GI50 (NCI-H226): 100 nM
- GI50 (NCI-H23): < 30 nM
- GI50 (NCI-H322M): 260 nM
- GI50 (NCI-H460): < 10 nM
- GI50 (NCI-H522): < 10 nM
- GI50 (COLO 205): < 40 nM
- GI50 (HCC 2998): 110 nM
- GI50 (HCT-116): < 20 nM
- GI50 (HCT-15): 2560 nM
- GI50 (HT-29): 170 nM
- GI50 (SW-620): < 50 nM
- GI50 (SF-268): < 10 nM
- GI50 (SF-539): < 10 nM
- GI50 (SNB-19): < 20 nM
- GI50 (SNB-75): < 30 nM
- GI50 (U-251): < 10 nM
- GI50 (LOX IMVI): < 10 nM
- GI50 (Malme-3M): < 20 nM
- GI50 (M14): < 30 nM
- GI50 (SK-MEL-2): 500 nM
- GI50 (A498): < 60 nM
